Experimental data from paper PMC5471438, “Linaclotide activates guanylate cyclase‐C/cGMP/protein kinase‐II‐dependent trafficking of CFTR in the intestine” (Physiological Reports, 2017).
Entries after “also recorded” stand apart in the source; their conditions may differ.

How the values were obtained:
rat jejunum = test: Fluid secretion in ligated rat jejunal loops in vivo; set-up: species or system rat (Sprague–Dawley); conditions: linaclotide 5 μg/mL/loop, 30 min, vs saline (1 mL)
Protocol: (§1) All animal studies were approved by the Institutional Animal Care and Use Committee of Yale University School of Medicine. Briefly, male Sprague–Dawley rats (200–250 g, Charles River Laboratories) were fasted overnight with access to drinking water ad libitum. Anesthesia was performed with Inactin® (Thiobutabarbital sodium salt hydrate, 120 mg/kg/i.p.). The jejunal, ileal, and proximal colonic loops (5 cm length) were prepared using sutures. Loops were instilled either with normal saline (pH7.4, 37°C) (1 mL/loop) or linaclotide (5 μg/mL/loop) for 30 min. At the end of the study, animals were euthanized with Inactin (200 mg/kg/i.p.).
The guanylate cyclase‐C (GC‐C) agonist linaclotide stimulates the production and accumulation of intracellular cGMP, which acts as a second messenger to enhance fluid secretion in the intestine (Schulz et al. 1990; Busby et al. 2013). We first tested whether linaclotide can enhance fluid secretion in vivo in the rat small intestine. Following anesthesia and laparotomy, intestinal loops were created in rat jejunum and injected either with vehicle (saline, 1 mL) or linaclotide (5 μg/1 mL). […] In this study, we examined whether linaclotide treatment also stimulates fluid secretion by recruiting CFTR to the apical surface of rat jejunum enterocytes in vivo. […]

CFTR [1] = test: Surface biotinylation of CFTR in rat jejunum enterocytes after in vivo loop treatment; conditions: linaclotide 5 μg/mL/loop, 30 min in vivo, vs saline and untreated, mean ± SEM (n = 4)
CFTR [2] = test: Confocal immunofluorescence of CFTR in rat intestine; format: in vivo; conditions: linaclotide 5 μg, 30 min
Protocol: as §1
After completion of treatment either with normal saline or linaclotide for 30 min, intestinal segments were immediately removed and briefly rinsed with ice‐cold PBS. Tissues were cut into ~2‐mm‐thick rings, fixed in 2% paraformaldehyde in PBS, pH 7.4 for 1 h at room temperature, rinsed with PBS and cryoprotected in 30% sucrose overnight. Multiple tissue samples were processed under identical conditions by the utilization of tissue arrays as previously described (Jakab et al. 2011). […] Immunolabeled sections were stored at 4°C and examined on Zeiss LSM 710 DUO laser scanning confocal microscope outfitted with a Mai‐Tai laser and electronics capable of spectrally separating fluorescence emission profiles. […]

[3] = system: rat proximal colonic mucosa; test: Transepithelial short circuit current (Isc) across rat proximal colonic mucosa, Ussing chamber; set-up: species or system rat (Sprague–Dawley); conditions: rat proximal colonic mucosa, linaclotide 6 nmol/L and 100 nmol/L, apical; mean ± SEM (n = 4)
human colonic mucosa = test: Transepithelial short circuit current (Isc) across human ascending colonic mucosa, Ussing chamber; conditions: human ascending colon, linaclotide 30 nmol/L and 1000 nmol/L, apical, pH 7.4, 37°C; mean ± SEM (n = 12)
T84 cells = test: cGMP synthesis in T84 cells; format: cell-based, human
C2BBe cells = test: cGMP synthesis in C2BBe cells; format: cell-based, human
cGKII (PKGII) [4] = test: VASP Ser239 phosphorylation in C2BBe cells, Western blot; format: cell-based, human; conditions: linaclotide 1 and 3.27 μmol/L, 30 min, 8Br‐cGMP 0.2 and 1 mmol/L positive control
Protocol: (§2) C2BBe or T84 cells were homogenized in TGH lysis buffer [25 mmol/L HEPES, 10% (vol/vol) glycerol, 1% (vol/vol) Triton‐ × 100, pH 7.4] containing protease inhibitors (10 nmol/L iodoacetamide, 1 mmol/L phenylmethylsulfonyl fluoride (PMSF), 2 μg/mL leupeptin) for 30 min on ice. Homogenates were solubilized, subject to centrifugation at 13,200 g for 15 min at 4°C, and cleared supernatants were recovered. Protein concentration of the supernatant was determined with Coomassie Protein Assay Reagent (Pierce) and samples prepared and analyzed as described (Kravtsov et al. 2016). Quantification of surface‐labeled proteins was performed with Quantity One image analysis software.
(§3) VASP was originally characterized as a substrate for both PKG (cGMP‐dependent kinase) and PKA (cAMP‐dependent kinase). […] To determine linaclotide‐induced activation of cGKII, we determined the phosphorylation of VASP^Ser239 30 min following treatment either with vehicle or linaclotide (1 μmol/L and 3.27 μmol/L; the 3.27 μmol/L concentration is equivalent to the 5 μg dose of linaclotide that was used in vivo in the rat jejunum loop). The membrane permeant cGMP analog, 8 Br‐cGMP (0.2 mmol/L, 1 mmol/L), was used as a positive control.

cGKII (PKGII) [5] = test: VASP Ser239 phosphorylation in T84 cells, Western blot; format: cell-based, human; conditions: linaclotide 1 and 3.27 μmol/L, 30 min, 8Br‐cGMP 0.2 and 1 mmol/L positive control
Protocol: as §2, §3

CFTR [6] = test: Surface biotinylation of CFTR in C2BBe cells; format: cell-based, human; conditions: linaclotide 1 μmol/L and 3.27 μmol/L, 30 min
CFTR [7] = test: Surface biotinylation of CFTR in T84 cells; format: cell-based, human; conditions: linaclotide 1 μmol/L and 3.27 μmol/L, 30 min
GC‐C = conditions: ref Bryant et al. 2010; Busby et al. 2010; cited from earlier work
Description: The synthetic GC‐C agonist peptide, linaclotide, is an FDA‐approved drug for adult patients with Irritable Bowel Syndrome with Constipation (IBS‐C) and Chronic Idiopathic Constipation (CIC) (Bryant et al. 2010; Busby et al. 2010). IBS‐C is a highly prevalent, chronic functional gastrointestinal disorder with a global prevalence estimated to range from 5% to 20% (Mayer 2008; Quigley et al. 2012).

GC‐C/cGMP pathway = conditions: modulated by MRP4; ref Tchernychev et al. 2015; cited from earlier work
Description: The cystic fibrosis transmembrane conductance regulator (CFTR) is a cyclic adenosine monophosphate (cAMP) and cGMP‐regulated anion‐selective channel that is expressed on the apical domain of intestinal epithelial cells where it serves as the main conductive pathway for Cl^− and HCO3 ^− ions transported across the membrane into the lumen (Riordan et al. 1989; Anderson et al. 1991; Vaandrager et al. 1997).

[8] = Stability of linaclotide in human mucosa tissue supernatants by LC-MS; conditions: human intestinal mucosa supernatants, 1 μmol/L, 30 and 60 min incubation, 37°C
[9] = IBMX 1 mmol/L 10 min, linaclotide 0.001–10 μmol/L 30 min, 37°C, pH 7, cGMP in supernatants by LC/MS/MS, n = 4
[10] = linaclotide 0.001–10 μmol/L, 30 min, IBMX 1 mmol/L

linaclotide
fluid secretion in jejunal loop (rat jejunum): robust fluid secretion; also recorded: distended and tightly filled with fluid; also recorded: robust increase in fluid accumulation in jejunum loops
surface CFTR (surface biotinylation, Western blot) (CFTR [1]): highest levels of surface CFTR; also recorded: robust increase in surface CFTR when compared to the untreated intestine
CFTR localization in brush border (confocal) (CFTR [2]): accumulation of CFTR in the brush border
linaclotide-induced transepithelial ion current (Isc) [3]: induced a transepithelial ion current at both concentrations
linaclotide-induced transepithelial ion current (Isc) (human colonic mucosa): induced transepithelial ion current at concentrations of 30 nmol/L and 1000 nmol/L
EC80 for cGMP synthesis (approximate) (T84 cells): ~1 µM
EC100 for cGMP synthesis (approximate) (T84 cells): ~3 µmol/L
EC50 (T84 cells; [9]): 0.772 µM
cGMP synthesis (T84 cells; [10]): concentration dependently stimulated cGMP synthesis
EC80 for cGMP synthesis (approximate) (C2BBe cells): ~1 µM
EC100 for cGMP synthesis (approximate) (C2BBe cells): ~3 µmol/L
EC50 (C2BBe cells; [9]): 0.523 µM
cGMP synthesis (C2BBe cells; [10]): concentration dependently stimulated cGMP synthesis
phosphorylation of VASP Ser239 (cGKII (PKGII) [4]): more robust phosphorylation of VASP^Ser239 compared to 8Br‐cGMP; also recorded: higher levels of VASP^Ser239 phosphorylation compared to the lower concentration
phosphorylation of VASP Ser239 (cGKII (PKGII) [4]; listed as Linaclotide): more strongly enhanced phosphorylation of VASP^Ser239 compared to the cGMP analog 8‐Br‐cGMP
phosphorylation of VASP Ser239 (cGKII (PKGII) [5]): more robust phosphorylation of VASP^Ser239 compared to 8Br‐cGMP; also recorded: higher levels of VASP^Ser239 phosphorylation compared to the lower concentration
phosphorylation of VASP Ser239 (cGKII (PKGII) [5]; listed as Linaclotide): more strongly enhanced phosphorylation of VASP^Ser239 compared to the cGMP analog 8‐Br‐cGMP
CFTR recruitment to cell surface (CFTR [6]): increased cell surface CFTR levels; also recorded: robust recruitment of CFTR to the apical surface; also recorded: robust increase in surface levels of CFTR compared to untreated control cells; also recorded: higher surface CFTR levels in C2BBe cells compared to T84 cells
CFTR recruitment to cell surface (CFTR [7]): increased cell surface CFTR levels; also recorded: robust recruitment of CFTR to the apical surface; also recorded: robust increase in surface levels of CFTR compared to untreated control cells
fluid secretion (GC‐C): increased fluid secretion
intestinal transit (GC‐C): accelerated intestinal transit
transepithelial electrolyte secretion (GC‐C/cGMP pathway): increased transepithelial electrolyte secretion across the mucosa
stability of linaclotide in tissue supernatants [8]: stable under these conditions
